Where two headings read alike, the source gives them in different places.
Experiments:
[1] = clinical; details: both, human, plasma, po, 6 milligram
Procedure: As described more fully below, a single-center, phase 1, randomized, open-label, single dose, two-way crossover study was conducted in 16 healthy young adult male and female volunteers.
A study assessed the effect of food on the pharmacokinetics (PK) of doxepin in healthy subjects. It was a single-center, phase 1, randomized, open-label, single dose, two-way crossover study conducted in sixteen healthy, young adult male and female subjects. Screening procedures were performed within 14 days prior to enrollment.
Following screening procedures and baseline assessments, eligible subjects were randomly assigned to one of two treatment sequences (fed-fasted or fasted-fed). Subjects received a single 6 milligram dose of doxepin in the morning under either fed or fasted conditions on 2 dosing days (Day 1 and Day 8). There were approximately 7 days between each dose. Enrolled subjects were admitted to the study center on the evening before study drug dosing (Day 0 and Day 7) and remained at the study center for approximately 5 days.
Subjects being dosed under fasted conditions were required to fast overnight for at least 10 hours prior to study drug administration and for 4 hours after study drug administration. Fluids were restricted from 1 hour predose to 1 hour postdose, except for water taken at the time of dosing. Subjects being dosed under fed conditions were dosed approximately 5 minutes after eating a high-fat, high-calorie standardized breakfast (to be ingested within 25 minutes). Subjects were required to ingest the entire contents of the breakfast. All subjects were required to remain in bed for approximately 4 hours after dosing.
The total amount of protein, fat, and carbohydrate that made up this meal was approximately 33, 55, and 58 g, respectively. The total calorie content was approximately 850 kcal.
Subjects were dosed on Day 1 and Day 8. The PK profiles were evaluated on Days 1 through 5 and Days 8 through 12. Blood samples were collected at predose (0 hour) and at 0.08, 0.17, 0.25, 0.5, 0.75, 1, 1.5, 2, 3, 4, 6, 8, 12, 24, 36, 48, 60, 72, and 96 hours postdose. The samples were analyzed for doxepin and doxepin metabolite concentrations in plasma. Plasma concentrations of doxepin were measured using validated high performance liquid chromatography coupled to tandem mass spectrometry. The lower limit of quantification for doxepin was 0.05 ng/mL. The following PK parameters were estimated by noncompartmental methods using actual elapsed time from dosing:

[2] = calculated from geometric LS means, single 6 milligram dose
[3] = plasma, single 6 milligram doxepin tablet, fasted (N = 15)
[4] = plasma, single 6 milligram doxepin tablet, fed (N = 16)
[5] = ratio of geometric LS means, 6 milligram doxepin tablet
[6] = single 6 milligram doxepin tablet, fasted (N 15)
[7] = single 6 milligram doxepin tablet, fed (N 16)
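Note: healthy young adult men and women, dosed in the morning. Doxepin in plasma by validated HPLC-MS/MS (LLOQ 0.05 ng/mL), parameters by noncompartmental analysis on actual elapsed time after dosing.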

CN(C)CCC=C1c2ccccc2COc2ccccc21 [doxepin]
Cmax [1]: 0.854 ng/mL
Tmax [1]: 3 h
time postdose at which detectable plasma levels were first observed (both fed and fasted states (six and five subjects, respectively)): 30 min
time postdose up to which plasma doxepin concentrations remained quantifiable (both treatments (fed and fasted), lower limit of quantification 0.05 ng/mL): up to 48 hours
AUC0-∞, Effect of Food (% of fasted state) [2]: 141 % of fasted state
Cmax, Effect of Food (% of fasted state) [2]: 115 % of fasted state
Tmax, Effect of Food (% of fasted state) (median Tmax, single 6 milligram dose): 200 % of fasted state
AUC0-Tlast, arithmetic mean [3]: 12.6 ng·h/mL
AUC0-∞, arithmetic mean [3]: 14.1 ng·h/mL
t1/2, arithmetic mean [3]: 14.4 h
λz, arithmetic mean [3]: 0.0623 h⁻¹
Cmax, arithmetic mean [4]: 0.951 ng/mL
Tmax, median [4]: 6.0 h
λz, arithmetic mean [4]: 0.0445 h⁻¹
AUC0-Tlast, Pairwise Comparison Ratio Fed/Fasted [5]: 145.6%
AUC0-∞, Pairwise Comparison Ratio Fed/Fasted [5]: 141.3%
Cmax, Pairwise Comparison Ratio Fed/Fasted [5]: 114.6%
increase in AUC0-Tlast under fed conditions compared to fasted conditions (single 6 milligram dose): 46%
mean CL/F lower in the fed state compared to the fasted state (single 6 milligram dose): 43%
mean Vd/F lower in the fed state compared to the fasted state (single 6 milligram dose): 14%
time postdose by which all subjects had detectable concentrations (single 6 milligram dose): ≤ 90 min
time postdose at which mean plasma concentrations reach Cmax (single 6 milligram dose, fasted state (Treatment A)): 3.0 h
time postdose at which mean plasma concentrations reach Cmax (single 6 milligram dose, fed state (Treatment B)): 6.0 h
AUC0-Tlast, Geometric LS Mean [6]: 9.194 ng·h/mL
AUC0-∞, Geometric LS Mean [6]: 10.72 ng·h/mL
Cmax, Geometric LS Mean [6]: 0.717 ng/mL
CL/F, arithmetic mean (single 6 milligram doxepin tablet, fasted (N = 15)): 837 L/h
AUC0-Tlast, Geometric LS Mean [7]: 13.39 ng·h/mL
AUC0-∞, Geometric LS Mean [7]: 15.14 ng·h/mL
Cmax, Geometric LS Mean [7]: 0.822 ng/mL
CL/F, arithmetic mean (single 6 milligram doxepin tablet, fed (N = 16)): 477 L/h
